The subject of one data set is P-glycoprotein. Also noted: method as in PMID 32652442. As to conditions: cited from earlier work.
Details of data set [1]: method as in PMID 27745744. As to conditions: cited from earlier work.
A further data set relates to CYP2C8. Further details: method as in PMID 21838784. As to conditions: cited from earlier work.
Data set [2] can be described thus: Part A safety: adverse events (NCI CTCAE v5.0), safety population. As to conditions: Part A (N = 12); by treatment period. The data set is classed as in vivo, human (patients with advanced solid tumors). On the procedure: This was an open-label, parallel-group, phase 1 study consisting of a 2-part core phase and an extension phase. Only results for the core phases are reported herein (Supplementary Fig. 1). […] Blood samples for PK analysis were obtained on days 1 and 10 at predose, and at 0.5, 1, 2, 4, 6, 9, 12, 24, and 48 h postdose. Pamiparib plasma concentrations were determined using a validated liquid chromatography–mass spectrometry/mass spectrometry method (lower limit of quantification 1.0 ng/mL) at Covance Laboratory Services (Salt Lake City, Utah).
(§1) Adverse events (AEs) were monitored throughout the study and were graded according to the National Cancer Institute Common Terminology Criteria v5.0.
(§2) The safety population included all patients who received at least one dose of pamiparib. […] Plasma PK parameters were calculated from pamiparib concentration–time profiles using standard noncompartmental methods. PK parameters were calculated using Phoenix WinNonlin v6.4 or higher (Certara, Princeton, NJ, USA). […] Data for each treatment part were analyzed separately. Log-transformed AUC and Cmax values were analyzed using a linear mixed-effect model analysis assuming a fixed effect for treatment and a random effect for patients. The study design called for ~ 24 patients (12 in each part) to be enrolled to ensure at least 20 (10 in each part) completed the study. This sample size was based on the precedent set by other PK studies of a similar nature and was not based on power calculations.

The nature of data set [3]: Part B safety: adverse events (NCI CTCAE v5.0), safety population. The conditions noted are these: by treatment period. The data set is classed as in vivo, human (patients with solid tumors). The procedure:
Part B of the core phase assessed the effect of the strong CYP3A inhibitor itraconazole on the PK of pamiparib in patients with solid tumors. All patients received a single dose of oral pamiparib 20 mg on days 1 and 7, and oral itraconazole 200 mg QD on days 3–8. The 20-mg pamiparib dose, the lowest dose strength available and one-sixth of the highest phase 1 dose (120 mg), was deemed sufficient to cover the plasma exposure increase due to complete blockade of CYP3A by itraconazole. Part B patients fasted for at least 8 h before and at least 4 h after pamiparib administration, except for day 7 upon which itraconazole administration occurred ~ 30 min after completing a meal and pamiparib administration followed within 5 min of itraconazole administration. Blood samples for PK analysis were obtained on days 1 and 7 at the same time points listed above for Part A. After completing the core phase in Part A and Part B, patients were offered participation in the extension phase, in which they were to receive pamiparib PO BID in 28-day cycles until disease progression, unacceptable toxicity, withdrawal of consent, or any other reason for discontinuation.
as §1, §2

Another data set concerns CYP3A rather than CYP2C8. Also noted: method as in PMID 11136296. As to conditions: cited from earlier work.
[4] abbreviates: olaparib with itraconazole administration.
Where [5] appears, read: Part B (N = 13; N = 12 for pamiparib with itraconazole).

Here are results for seven compounds from paper PMC8149352 (Cancer Chemotherapy and Pharmacology, 2021).

Take `CNCc1ccc(-c2[nH]c3cc(F)cc4c3c2CCNC4=O)cc1` [rucaparib]: in the data set on P-glycoprotein, the P-glycoprotein substrate status result is on record as “substrate of P-glycoprotein”.

Take `O=C(c1cc(Cc2n[nH]c(=O)c3ccccc23)ccc1F)N1CCN(C(=O)C2CC2)CC1` [olaparib]: in data set [1] (setting [4]), the “AUC treatment ratio with itraconazole” value is recorded as 2.70 and the “Cmax treatment ratio with itraconazole” value is 1.42. Moreover, the “AUC increase with itraconazole observed in one patient” value in data set [1] (olaparib with itraconazole, one patient) was “sevenfold”. The P-glycoprotein substrate status result with P-glycoprotein is reported as “substrate of P-glycoprotein”.

As for `C[C@]1(c2nc3c(C(N)=O)cccc3[nH]2)CCCN1` [veliparib], the P-glycoprotein substrate status entry in the data set on P-glycoprotein is listed as “substrate of P-glycoprotein”.

For the compound `Cn1ncnc1[C@H]1c2n[nH]c(=O)c3cc(F)cc(c23)N[C@@H]1c1ccc(F)cc1` [talazoparib], in the data set with P-glycoprotein, the P-glycoprotein substrate status result was “substrate of P-glycoprotein”.

On to `CC(C)(O)c1ccccc1CC[C@@H](SCC1(CC(=O)O)CC1)c1cccc(/C=C/c2ccc3ccc(Cl)cc3n2)c1` [montelukast], for which, in the data set with CYP2C8, the “effect of CYP2C8 inhibitor gemfibrozil on montelukast AUC” value is given as “markedly increased” and the “effect of itraconazole coadministration on montelukast PK” value was “no significant effects”.

Turning to `CO[C@H]1/C=C/O[C@@]2(C)Oc3c(C)c(O)c4c(O)c(c(/C=N/N5CCN(C)CC5)c(O)c4c3C2=O)NC(=O)/C(C)=C\C=C\[C@H](C)[C@H](O)[C@@H](C)[C@@H](O)[C@@H](C)[C@H](OC(C)=O)[C@@H]1C` [Rifampin, rifampin, reference compound], in data set [2], the “Any treatment-related TEAE, patients” value is recorded as 1 (8.3) n (%); the “Grade >= 3 TEAE, patients” value is given as 0 n (%); the “Serious AE, patients” value was 0 n (%); the “Treatment-related TEAE related to both, patients” value is 0 n (%). Moreover, in data set [2], the “Treatment-related TEAE related to pamiparib only, patients” value is recorded as 0 n (%) and the “Treatment-related TEAE related to rifampin only, patients” value was 1 (8.3) n (%).

As for `CCC(C)n1ncn(-c2ccc(N3CCN(c4ccc(OCC5COC(Cn6cncn6)(c6ccc(Cl)cc6Cl)O5)cc4)CC3)cc2)c1=O` (centres unmarked) [Itraconazole, itraconazole, reference compound], the “in vivo CYP2C8 inhibition” value in the data set on CYP2C8 (inferred from montelukast clinical study) is listed as “negligible”. Moreover, in data set [3] (setting [5]), the “All TEAEs (any grade), patients” value is 2 (15.4) n (%); the “Any treatment-related TEAE, patients” value is 1 (7.7) n (%); the “Grade >= 3 TEAE, patients” value is listed as 1 (7.7) n (%); the “Serious AE, patients” value is reported as 1 (7.7) n (%). Further, in data set [3] (setting [5]), the “Treatment-related TEAE related to itraconazole only, patients” value was 0 n (%) and the “Treatment-related TEAE related to pamiparib only, patients” value is 0 n (%). In data set [3] (Part B), the “Serious AE related to both, patients” value is 0 n (%); the “Serious AE related to itraconazole only, patients” value was 0 n (%); the “Serious AE related to pamiparib only, patients” value is on record as 0 n (%). The “specificity of inhibition for CYP3A rather than CYP2C8” value in the data set on CYP3A rather than CYP2C8 was ~ 100 fold.
